Test results published in US10765114B2, “4-amino-6-(pyridyl and 2-substitutedphenyl)-picolinates and 6-amino-2-(pyridyl and 2-substitutedphenyl)-pyrimidine-4-carboxylates and their use as herbicides” (Dow AgroSciences LLC, priority 2013, dated 2020).
Where two headings read alike, the source gives them in different places.

Legend:
[1] = system: Key Grass and Sedge Weeds as well as Grass Crops; assay: Post-Emergent Test II (Table 6); assay type: in vivo; conditions: post-emergence, 336 h, 14 days after application; for pest or weed control at 70 g/ha: 70 g ai/ha; for pest or weed control at 140 g/ha: 140 g ai/ha
In short: (§1)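 Post-emergence greenhouse spray, 1st-2nd true leaf stage; track sprayer, 187 L/ha; acetone/DMSO stock diluted in aqueous acetone/IPA/DMSO with Atplus 411F and Triton X-155; rates 1× to 1/16×; subirrigated; visual injury 0 (none) to 100% (complete kill) at 14 days.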

[2] = system: Key Broadleaf Weed and Crop Species; assay: Post-Emergent Test II (Table 5); assay type: in vivo; conditions: post-emergence, 336 h; for pest or weed control at 70 g/ha: application rate 70 (kg ai/ha; footnote: g ai/ha); for pest or weed control at 140 g/ha: application rate 140 (kg ai/ha; footnote: g ai/ha)
In short: as §1

[3] = CYPSS, read-out: Visual Growth Reduction (%) 14 Days After Application CYPSS
[4] = DIGSA: crabgrass (Digitaria sanguinalis), read-out: Visual Growth Reduction (%) 14 Days After Application DIGSA
[5] = ECHSS, read-out: Visual Growth Reduction (%) 14 Days After Application ECHSS
[6] = ORYSS (crop), read-out: Visual Growth Reduction (%) 14 Days After Application ORYSS
[7] = SETFA: giant foxtail (Setaria faberi), read-out: Visual Growth Reduction (%) 14 Days After Application SETFA
[8] = SORVU: grain sorghum (Sorghum vulgare), read-out: Visual Growth Reduction (%) 14 Days After Application SORVU
[9] = TRZSS (crop), read-out: Visual Growth Reduction (%) 14 Days After Application TRZSS
[10] = ZEAMX: maize, corn (Zea mays), read-out: Visual Growth Reduction (%) 14 Days After Application ZEAMX
[11] = Abutilon theophrasti, ABUTH: velvetleaf (Abutilon theophrasti), read-out: Visual Growth Reduction (%) 14 Days After Application ABUTH
[12] = Amaranthus retroflexus, AMARE: redroot pigweed (Amaranthus retroflexus), read-out: Visual Growth Reduction (%) 14 Days After Application AMARE
[13] = Brassica napus, BRSSS: oilseed rape, canola (Brassica napus), read-out: Visual Growth Reduction (%) 14 Days After Application BRSSS
[14] = Chenopodium album, CHEAL: lambsquarters (Chenopodium album), read-out: Visual Growth Reduction (%) 14 Days After Application CHEAL
[15] = Euphorbia heterophylla, EPHHL: wild poinsettia (Euphorbia heterophylla), read-out: Visual Growth Reduction (%) 14 Days After Application EPHHL
[16] = Helianthus annuus, HELAN: sunflower (Helianthus annuus), read-out: Visual Growth Reduction (%) 14 Days After Application HELAN
[17] = Viola tricolor, VIOTR: wild pansy (Viola tricolor), read-out: Visual Growth Reduction (%) 14 Days After Application VIOTR

Row | Compound | pest or weed control at 70 g/ha [1, 3] [%] | pest or weed control at 140 g/ha [1, 3] [%] | pest or weed control at 70 g/ha [1, 4] [%] | pest or weed control at 140 g/ha [1, 4] [%] | pest or weed control at 70 g/ha [1, 5] [%] | pest or weed control at 140 g/ha [1, 5] [%] | pest or weed control at 70 g/ha [1, 6] [%] | pest or weed control at 140 g/ha [1, 6] [%] | pest or weed control at 70 g/ha [1, 7] [%] | pest or weed control at 140 g/ha [1, 7] [%] | pest or weed control at 70 g/ha [1, 8] [%] | pest or weed control at 140 g/ha [1, 8] [%] | pest or weed control at 70 g/ha [1, 9] [%] | pest or weed control at 140 g/ha [1, 9] [%] | pest or weed control at 70 g/ha [1, 10] [%] | pest or weed control at 140 g/ha [1, 10] [%] | pest or weed control at 70 g/ha [2, 11] [%] | pest or weed control at 140 g/ha [2, 11] [%] | pest or weed control at 70 g/ha [2, 12] [%] | pest or weed control at 140 g/ha [2, 12] [%] | other results
1 | Cc1c(-c2nc(C(=O)O)c(Cl)c(N)c2F)ccc(Cl)c1F [Compound 67] | 0 to 29 | 0 to 29 | 0 to 29 | 0 to 29 | 0 to 29 | 0 to 29 | 0 to 29 | 0 to 29 | 0 to 29 | 0 to 29 | 0 to 29 | 0 to 29 | 0 to 29 | 0 to 29 | 0 to 29 | 0 to 29 | 85 to 94 | 85 to 94 | 95 to 100 | 95 to 100 | pest or weed control at 70 g/ha [2, 13]: 95 to 100%; pest or weed control at 140 g/ha [2, 13]: 95 to 100%; pest or weed control at 70 g/ha [2, 14]: 95 to 100%; pest or weed control at 140 g/ha [2, 14]: 95 to 100%; pest or weed control at 70 g/ha [2, 15]: 0 to 29%; pest or weed control at 140 g/ha [2, 15]: 0 to 29%; pest or weed control at 70 g/ha [2, 16]: 95 to 100%; pest or weed control at 140 g/ha [2, 16]: 95 to 100%; pest or weed control at 70 g/ha [2, 17]: 0 to 29%; pest or weed control at 140 g/ha [2, 17]: 0 to 29%
2 | COC(=O)c1nc(-c2ccc(I)nc2)c(F)c(N)c1Cl [Compound 54, methyl 4-amino-5-chloro-3-fluoro-6′-Iodo-[2,3′-bipyridine]-6-carboxylate] | 75 to 84 | 85 to 94 | 60 to 74 | 75 to 84 | 75 to 84 | 85 to 94 | 0 to 29 | 0 to 29 | 60 to 74 | 60 to 74 | 45 to 59 | 60 to 74 | 60 to 74 | 75 to 84 | 45 to 59 | 60 to 74 | 85 to 94 | 85 to 94 | 85 to 94 | 85 to 94 | pest or weed control at 70 g/ha [2, 13]: 85 to 94%; pest or weed control at 140 g/ha [2, 13]: 95 to 100%; pest or weed control at 70 g/ha [2, 14]: 95 to 100%; pest or weed control at 140 g/ha [2, 14]: 95 to 100%; pest or weed control at 70 g/ha [2, 15]: 75 to 84%; pest or weed control at 140 g/ha [2, 15]: 85 to 94%; pest or weed control at 70 g/ha [2, 16]: 85 to 94%; pest or weed control at 140 g/ha [2, 16]: 95 to 100%; pest or weed control at 70 g/ha [2, 17]: 75 to 84%; pest or weed control at 140 g/ha [2, 17]: 85 to 94%
3 | COC(=O)c1nc(-c2ccc(C(F)(F)F)nc2)cc(N)c1Cl [Compound 4] | 60 to 74 | 60 to 74 | 0 to 29 | 0 to 29 | 30 to 44 | 75 to 84 | 0 to 29 | 0 to 29 | 0 to 29 | 0 to 29 | 45 to 59 | 60 to 74 | 0 to 29 | 0 to 29 | 0 to 29 | 0 to 29 | 75 to 84 | 75 to 84 | 85 to 94 | 95 to 100 | pest or weed control at 70 g/ha [2, 13]: 30 to 44%; pest or weed control at 140 g/ha [2, 13]: 60 to 74%; pest or weed control at 70 g/ha [2, 14]: 75 to 84%; pest or weed control at 140 g/ha [2, 14]: 85 to 94%; pest or weed control at 70 g/ha [2, 15]: 75 to 84%; pest or weed control at 140 g/ha [2, 15]: 85 to 94%; pest or weed control at 70 g/ha [2, 16]: 60 to 74%; pest or weed control at 140 g/ha [2, 16]: 75 to 84%; pest or weed control at 70 g/ha [2, 17]: 0 to 29%; pest or weed control at 140 g/ha [2, 17]: 0 to 29%
4 | Nc1c(F)c(-c2ccc(Cl)c(Cl)c2Cl)nc(C(=O)O)c1Cl [Compound 10] | 0 to 29 | 0 to 29 | 0 to 29 | 45 to 59 | 0 to 29 | 0 to 29 | 0 to 29 | 0 to 29 | 0 to 29 | 0 to 29 | 0 to 29 | 0 to 29 | 75 to 84 | 85 to 94 | 60 to 74 | 60 to 74 | 0 to 29 | 0 to 29 | 95 to 100 | 95 to 100 | pest or weed control at 70 g/ha [2, 13]: 95 to 100%; pest or weed control at 140 g/ha [2, 13]: 95 to 100%; pest or weed control at 70 g/ha [2, 14]: 75 to 84%; pest or weed control at 140 g/ha [2, 14]: 75 to 84%; pest or weed control at 70 g/ha [2, 15]: 60 to 74%; pest or weed control at 140 g/ha [2, 15]: 75 to 84%; pest or weed control at 70 g/ha [2, 16]: 0 to 29%; pest or weed control at 140 g/ha [2, 16]: 0 to 29%; pest or weed control at 70 g/ha [2, 17]: 0 to 29%; pest or weed control at 140 g/ha [2, 17]: 0 to 29%
